The results in this text go back to patent US9469615B2, “Quinoxalines and AZA-quinoxalines as CRTH2 receptor modulators” (Merck Sharp & Dohme Corp., priority 2010, dated 2016).

The assay addresses T1, hCRTH2 (Homo sapiens, UniProt Q9Y5Y4).
T1 construct: expressed in transfected cells; host or cells: HEK (human embryonic kidney) cells expressing hCRTH2; membrane preparation
T1 sequence (Q9Y5Y4 1-395): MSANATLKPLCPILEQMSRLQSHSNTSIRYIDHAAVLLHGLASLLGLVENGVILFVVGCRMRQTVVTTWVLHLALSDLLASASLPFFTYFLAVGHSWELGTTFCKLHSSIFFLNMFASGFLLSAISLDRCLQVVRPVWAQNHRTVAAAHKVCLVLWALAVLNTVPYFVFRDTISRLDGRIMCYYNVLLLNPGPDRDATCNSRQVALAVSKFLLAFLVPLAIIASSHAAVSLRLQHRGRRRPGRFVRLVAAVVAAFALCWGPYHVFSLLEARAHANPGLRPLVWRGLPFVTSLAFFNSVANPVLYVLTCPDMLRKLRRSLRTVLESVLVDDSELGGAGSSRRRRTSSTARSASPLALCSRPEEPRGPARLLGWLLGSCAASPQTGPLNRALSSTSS
In words: Radioligand binding assay ([3H]PGD2 competition, HEK-hCRTH2 membranes). In short, it runs like this:
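Membranes (8-20 μg protein) from HEK-hCRTH2 cells were incubated 60 min at room temperature with 3.0 nM [3H]PGD2 in 50 mM Tris-HCl pH 7.4, 1 mM EDTA, 2 mM MnCl2, 1% DMSO. Non-specific binding defined with 10 μM PGD2. Bound radioactivity counted after filtration.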

Setting [1] is: [3H]PGD2 binding, rated A-E (Table A).
Where [2] appears, read: [3H]PGD2 binding, values in text.

On to `CN(Cc1ccc(F)cc1)C(=O)c1ccc2nc(-c3ccc(F)cc3)c(CCCC(F)(F)C(=O)O)nc2c1` [compound 529, 2,2-difluoro-5-(7-((4-fluorobenzyl)(methyl)carbamoyl)-3-(4-fluorophenyl)quinoxalin-2-yl)pentanoic acid], for which, under “[3H]PGD2 competition, Table B”, the Ki was in the range of 20.1 to 200 nM.

For the compound `CN(Cc1cccnc1)C(=O)c1ccc2nc(-c3ccc(Cl)cc3)c(CCCCC(=O)O)nc2c1` [compound 625, 5-(3-(4-chlorophenyl)-7-(methyl(pyridin-3-ylmethyl)carbamoyl)quinoxalin-2-yl)pentanoic acid], the Ki ([3H]PGD2 competition, Table B) was 2.1 to 20 nM.

With `O=C(O)CCCCc1nc2cc(C(=O)NCc3cccc(Cl)n3)ccc2nc1-c1ccccc1` [15BU, 5-(7-{[(6-chloropyridin-2-yl)methyl]carbamoyl}-3-phenylquinoxalin-2-yl)pentanoic acid], the Ki under setting [1] was in the range of 0.1 to 2 nM.

In the case of `O=C(O)CCCCc1nc2cc(C(=O)N[C@H]3CCCc4ccccc43)ccc2nc1-c1ccc(F)cc1` [compound 218, 3-(4-fluorophenyl)-7-[[(1,2,3,4-tetrahydro-1(S)-naphthalenyl)amino]carbonyl]-2-quinoxalinepentanoic acid], the Ki under setting [1] was in the range of 0.1 to 2 nM.

With `Cc1ccc(N2CCN(C(=O)c3ccc4nc(-c5ccc(F)cc5)c(CCCCC(=O)O)nc4c3)CC2)cc1` [compound 369, 5-(3-(4-fluorophenyl)-7-(4-(p-tolyl)piperazine-1-carbonyl)quinoxalin-2-yl)pentanoic acid], the Ki ([3H]PGD2 competition, Table B) was in the range of 2.1 to 20 nM.

As to `CO/N=C(/c1ccccn1)C1CCN(C(=O)c2ccc3nc(-c4ccccc4)c(CCCCC(=O)O)nc3c2)CC1` [compound 114, 7-[[4-[(E)-(methoxyimino)-2-pyridinylmethyl]-1-piperidinyl]carbonyl]-3-phenyl-2-quinoxalinepentanoic acid], under setting [1], the Ki fell in the range of 2.1 to 20 nM.

Where the note is “[3H]PGD2 competition, Table B”, `O=C(O)CCCCc1nc2cc(C(=O)N3CCN(c4nc5ccccc5s4)CC3)ccc2nc1-c1ccc(Cl)cc1` [compound 602, 5-(7-(4-(benzo[d]thiazol-2-yl)piperazine-1-carbonyl)-3-(4-chlorophenyl)quinoxalin-2-yl)pentanoic acid] returned a Ki of 0.1 to 2 nM.

`O=C(N[C@@H]1CCCc2cc(F)ccc21)c1ccc2nc(-c3ccc(F)cc3)c(CCC3CC3C(=O)O)nc2c1` (stereo partly drawn) [compound 264, 2-(2-(7-(((R)-6-fluoro-1,2,3,4-tetrahydronaphthalen-l-yl)carbamoyl)-3-(4-fluorophenyl)quinoxalin-2-yl)ethyl)cyclopropanecarboxylic acid]: the Ki reads like this: under setting [2], 15.4 nM; ([3H]PGD2 competition, Table B) 2.1 to 20 nM.

Under “[3H]PGD2 competition, Table B”, `O=C(O)CCCCc1nc2cc(C(=O)N[C@@H]3CCOc4ccccc43)c(F)cc2nc1-c1ccccc1` [compound 728, (R)-5-(7-(chroman-4-ylcarbamoyl)-6-fluoro-3-phenylquinoxalin-2-yl)pentanoic acid] registered a Ki of 2.1 to 20 nM.

With `CC(CCCc1nc2cc(C(=O)N3CC(c4ccccc4)C3)ccc2nc1-c1ccc(F)cc1)C(=O)O` (stereo not drawn) [compound 208, 3-(4-fluorophenyl)-alpha-methyl-7-[(3-phenyl-1-azetidinyl)carbonyl]-2-quinoxalinepentanoic acid], the Ki under setting [1] lay in the range of 2.1 to 20 nM.

On to `O=C(O)CCCCc1nc2cc(C(=O)N[C@@H]3CCOc4cc(C(F)(F)F)ccc43)ccc2nc1-c1ccc(Cl)cc1` [compound 720, (R)-5-(3-(4-chlorophenyl)-7-((7-(trifluoromethyl)chroman-4-yl)carbamoyl)quinoxalin-2-yl)pentanoic acid], for which the Ki ([3H]PGD2 competition, Table B) lay within 2.1 to 20 nM.

As to `O=C(O)CCOCc1nc2cc(C(=O)N3CCC(c4ccccc4)CC3)ccc2nc1-c1ccc(Cl)cc1` [compound 29, 3-((3-(4-chlorophenyl)-7-(4-phenylpiperidine-1-carbonyl)quinoxalin-2-yl)methoxy)propanoic acid], the Ki under setting [1] is 2.1 to 20 nM.

The compound `O=C(O)CCCCc1nc2cc(C(=O)N3CCC(c4ccccc4)CC3)ccc2nc1-c1ccc(F)cc1` [compound 105, 3-(4-fluorophenyl)-7-[(4-phenyl-1-piperidinyl)carbonyl]-2-quinoxalinepentanoic acid] gave a Ki under setting [1] of 2.1 to 20 nM.

Under setting [1], `COc1ccc(-c2nc3ccc(C(=O)N4CCC(c5ccccc5)CC4)cc3nc2CCCCC(=O)O)c(OC)c1` [26Z, 3-(2,4-dimethoxyphenyl)-7-[(4-phenyl-1-piperidinyl)carbonyl]-2-quinoxalinepentanoic acid] had a Ki of 0.1 to 2 nM.

Regarding `O=C(O)CCCCc1nc2cc(C(=O)NC3CCCc4ccccc43)ccc2nc1-c1ccccc1` (stereo not drawn) [15AR, 5-[3-phenyl-7-(1,2,3,4-tetrahydronaphthalen-1-ylcarbamoyl)quinoxalin-2-yl]pentanoic acid], the Ki was 0.1 to 2 nM under setting [1] and 1.6 nM under setting [2].

Under setting [1], `O=C(O)CCCCc1nc2cc(C(=O)N3CCC(c4ccccc4)CC3)ccc2nc1-c1ccc(C(F)(F)F)nc1` [26K, 7-[(4-phenyl-1-piperidinyl)carbonyl]-3-[6-(trifluoromethyl)-3-pyridinyl]-2-quinoxalinepentanoic acid] yielded a Ki of 2.1 to 20 nM.

Where the note is “[3H]PGD2 competition, Table B”, `C[C@H](NC(=O)c1ccc2nc(-c3ccc(Cl)cc3)c(CCCCC(=O)O)nc2c1)c1cccc2ncccc12` [compound 322, (S)-5-(3-(4-chlorophenyl)-7-((1-(quinolin-5-yl)ethyl)carbamoyl)quinoxalin-2-yl)pentanoic acid] showed a Ki of 2.1 to 20 nM.

For the compound `C[C@@H](NC(=O)c1ccc2nc(-c3ccc(Cl)cc3)c(CCCc3cccc(CC(=O)O)c3)nc2c1)c1ccc(F)cc1` [compound 545, (R)-2-(3-(3-(3-(4-chlorophenyl)-7-((1-(4-fluorophenyl)ethyl)carbamoyl)quinoxalin-2-yl)propyl)phenyl)acetic acid], the Ki ([3H]PGD2 competition, Table B) lay within 201 to 700 nM.

`O=C(N[C@@H]1CCCc2cc(F)ccc21)c1ccc2nc(-c3ccc(F)cc3)c(CCCC(F)(F)C(=O)O)nc2c1` [compound 465, (R)-2,2-difluoro-5-(7-((6-fluoro-1,2,3,4-tetrabydronaphthalen-1-yl)carbamoyl)-3-(4-fluorophenyl)quinoxalin-2-yl)pentanoic acid] gave a Ki ([3H]PGD2 competition, Table B) of 2.1 to 20 nM.

Under “[3H]PGD2 competition, Table B”, `O=C(O)CCCCc1nc2cc(C(=O)N3CCCCCC3c3cccnc3)ccc2nc1-c1ccc(Cl)cc1` (stereo not drawn) [compound 653, 5-(3-(4-chlorophenyl)-7-(2-(pyridin-3-yl)azepane-1-carbonyl)quinoxalin-2-yl)pentanoic acid] yielded a Ki of 201 to 700 nM.

In the case of `O=C(O)CCCCc1nc2cc(C(=O)N3CCN(c4ncccn4)CC3)ccc2nc1-c1ccc(Cl)cc1` [compound 552, 5-(3-(4-chlorophenyl)-7-(4-(pyrimidin-2-yl)piperazine-1-carbonyl)quinoxalin-2-yl)pentanoic acid], for the setting “[3H]PGD2 competition, Table B”, the Ki lay in the range of 2.1 to 20 nM.

Turning to `O=C(O)CCCCc1nc2cc(C(=O)C3CC3)ccc2nc1-c1ccccc1` [6G, 7-(cyclopropylcarbonyl)-3-phenyl-2-quinoxalinepentanoic acid], the Ki is, setting by setting: under setting [1], 0.1 to 2 nM; under setting [2], 0.5 nM.

Under setting [1], `CC(CCc1nc2cc(C(=O)NCc3ccc(Cl)cc3)ccc2nc1-c1ccc(C(F)(F)F)cc1)CC(=O)O` (stereo not drawn) [17X, 7-[[[(4-chlorophenyl)methyl]amino]carbonyl]-beta-methyl-3-[4-(trifluoromethyl)phenyl]-2-quinoxalinepentanoic acid] registered a Ki of 2.1 to 20 nM.

Regarding `O=C(O)CCCCc1nc2cc(C(=O)N[C@@H]3CCCc4ccncc43)ccc2nc1-c1ccc(Cl)cc1` [compound 617], the Ki ([3H]PGD2 competition, Table B) lay in the range of 0.1 to 2 nM.

In turn, `O=C(O)CCCCc1nc2cc(C(=O)NC3CCCc4cc(OCc5ccccc5)ccc43)ccc2nc1-c1ccc(Cl)cc1` (stereo not drawn) [compound 311, 5-(7-((6-(benzyloxy)-1,2,3,4-tetrahydronaphthalen-1-yl)carbamoyl)-3-(4-chlorophenyl)quinoxalin-2-yl)pentanoic acid] came in with a Ki ([3H]PGD2 competition, Table B) of 2.1 to 20 nM.

In the case of `CC(C)Oc1ccc(-c2nc3ccc(C(=O)N4CCC(c5ccccc5)CC4)cc3nc2CCCCC(=O)O)cc1` [compound 216, 3-[4-(1-methyl-ethoxy)phenyl]-7-[(4-phenyl-1-piperidinyl)carbonyl]-2-quinoxalinepentanoic acid], the Ki under setting [1] is 20.1 to 200 nM.

Under setting [1], `CC(NC(=O)c1ccc2nc(-c3ccccc3)c(CCCCC(=O)O)nc2c1)c1ccc(OC(F)(F)F)cc1` (stereo not drawn) [15BD, 5-[3-phenyl-7-({1-[4-(trifluoromethoxy)phenyl]ethyl}carbamoyl)quinoxalin-2-yl] pentanoic acid] yielded a Ki of 2.1 to 20 nM.

Under “[3H]PGD2 competition, Table B”, `CC(CCCc1nc2cc(C(=O)N[C@@H](C)c3ccc(Cl)cc3)ccc2nc1-c1ccc(Cl)cc1)C(=O)O` (stereo partly drawn) [compound 392, 5-(3-(4-chlorophenyl)-7-(((S)-1-(4-chlorophenyl)ethyl)carbamoyl)quinoxalin-2-yl)-2-methylpentanoic acid] returned a Ki of 2.1 to 20 nM.

On to `O=C(O)CCCCc1nc2cc(C(=O)N3CC(F)(c4ccccc4)C3)ccc2nc1-c1ccc(Cl)cc1` [compound 328, 5-(3-(4-chlorophenyl)-7-(3-fluoro-3-phenylazetidine-1-carbonyl)quinoxalin-2-yl)pentanoic acid], for which the Ki ([3H]PGD2 competition, Table B) lay within 2.1 to 20 nM.

Turning to `O=C(O)CCCCc1nc2cc(C(=O)N[C@H]3CCc4cc(Cl)ccc43)ccc2nc1-c1ccc(Cl)cc1` [compound 384, (S)-5-(7-((5-chloro-2,3-dihydro-1H-inden-1-yl)carbamoyl)-3-(4-chlorophenyl)quinoxalin-2-yl)pentanoic acid], where the note is “[3H]PGD2 competition, Table B”, the Ki lay in the range of 0.1 to 2 nM.
